Measured values published in ChEMBL document CHEMBL3526058, “Investigating the enteroenteric recirculation of apixaban, a factor Xa inhibitor: administration of activated charcoal to bile duct-cannulated rats and dogs receiving an intravenous dose and use of drug transporter knockout rats” (Drug Metab Dispos, 2013).

Key:
[1] = Mean residence time in P-gp-knockout Sprague-Dawley rat at 4 mg/kg, po; format: ADME, organism-based; parameters: dose 4 mg/kg, route oral; conditions: in vivo
[2] = Cmax in Sprague-Dawley rat at 4 mg/kg, po administered 1 hr post GF-120918 treatment; format: ADME, organism-based; parameters: dose 4 mg/kg, route oral; conditions: in vivo, with GF-120918
[3] = Cmax in wild-type Sprague-Dawley rat at 4 mg/kg, po; format: ADME, organism-based; parameters: dose 4 mg/kg, route oral; conditions: in vivo
[4] = Oral steady-state volume of distribution in beagle dog at 5 mg/kg followed by activated charcoal administration 3 hrs post compound dosing; format: ADME, organism-based, Canis lupus familiaris; parameters: dose 5 mg/kg; conditions: in vivo, read-out: Vss/F
[5] = Apparent oral clearance in beagle dog at 5 mg/kg, po followed by activated charcoal administration 3 hrs post compound dosing; format: ADME, organism-based, Canis lupus familiaris; parameters: dose 5 mg/kg, route oral; conditions: in vivo
[6] = Oral steady-state volume of distribution in beagle dog at 5 mg/kg followed by activated charcoal administration 0.25 hrs post compound dosing; format: ADME, organism-based, Canis lupus familiaris; parameters: dose 5 mg/kg; conditions: in vivo, read-out: Vss/F
[7] = Half life in beagle dog at 5 mg/kg, po followed by activated charcoal administration 1 hr post compound dosing; format: ADME, organism-based, Canis lupus familiaris; parameters: dose 5 mg/kg, route oral; conditions: in vivo
Rattus norvegicus = organism: Rattus norvegicus; assay: Plasma clearance in rat relative to hepatic blood flow; format: ADME, organism-based; conditions: in vivo
[8] = Apparent oral clearance in BCRP-knockout Sprague-Dawley rat at 4 mg/kg, po; format: ADME, organism-based; parameters: dose 4 mg/kg, route oral; conditions: in vivo
[9] = Half life in BCRP-knockout Sprague-Dawley rat at 4 mg/kg, po; format: ADME, organism-based; parameters: dose 4 mg/kg, route oral; conditions: in vivo
[10] = Oral bioavailability in BCRP-knockout Sprague-Dawley rat at 4 mg/kg; format: ADME, organism-based; conditions: in vivo
[11] = Cmax in beagle dog at 5 mg/kg, po followed by activated charcoal administration 0.25 hrs post compound dosing; format: ADME, organism-based, Canis lupus familiaris; parameters: dose 5 mg/kg, route oral; conditions: in vivo
[12] = AUC (0 to 24 hrs) in beagle dog at 5 mg/kg, po followed by activated charcoal administration 1 hr post compound dosing; format: ADME, organism-based, Canis lupus familiaris; parameters: time < 24 hr, dose 5 mg/kg, route oral; conditions: plasma
[13] = Mean residence time in Sprague-Dawley rat at 4 mg/kg, po administered 1 hr post GF-120918 treatment; format: ADME, organism-based; parameters: dose 4 mg/kg, route oral; conditions: in vivo, with GF-120918
[14] = Oral steady-state volume of distribution in BCRP-knockout Sprague-Dawley rat at 4 mg/kg; format: ADME, organism-based; parameters: dose 4 mg/kg; conditions: in vivo, read-out: Vss/F
[15] = AUC (0 to infinity) in P-gp-knockout Sprague-Dawley rat at 4 mg/kg, po; format: ADME, organism-based; parameters: time infinity, dose 4 mg/kg, route oral; conditions: plasma
[16] = Oral bioavailability in Sprague-Dawley rat at 4 mg/kg administered 1 hr post GF-120918 treatment; format: ADME, organism-based; conditions: in vivo, with GF-120918
[17] = Oral steady-state volume of distribution in beagle dog at 5 mg/kg; format: ADME, organism-based, Canis lupus familiaris; parameters: dose 5 mg/kg; conditions: in vivo, read-out: Vss/F
[18] = Mean residence time in BCRP-knockout Sprague-Dawley rat at 4 mg/kg, po; format: ADME, organism-based; parameters: dose 4 mg/kg, route oral; conditions: in vivo
[19] = Half life in Sprague-Dawley rat at 4 mg/kg, po administered 1 hr post GF-120918 treatment; format: ADME, organism-based; parameters: dose 4 mg/kg, route oral; conditions: in vivo, with GF-120918
[20] = AUC (0 to infinity) in Sprague-Dawley rat at 4 mg/kg, po administered 1 hr post GF-120918 treatment; format: ADME, organism-based; parameters: time infinity, dose 4 mg/kg, route oral; conditions: plasma, with GF-120918
[21] = Half life in beagle dog at 5 mg/kg, po followed by activated charcoal administration 3 hrs post compound dosing; format: ADME, organism-based, Canis lupus familiaris; parameters: dose 5 mg/kg, route oral; conditions: in vivo
[22] = Oral bioavailability in beagle dog at 5 mg/kg followed by activated charcoal administration 1 hr post compound dosing; format: ADME, organism-based, Canis lupus familiaris; conditions: in vivo
[23] = Apparent oral clearance in wild-type Sprague-Dawley rat at 4 mg/kg, po; format: ADME, organism-based; parameters: dose 4 mg/kg, route oral; conditions: in vivo
Canis familiaris = organism: Canis familiaris; assay: Plasma clearance in dog relative to hepatic blood flow; format: ADME, organism-based, Canis lupus familiaris; conditions: in vivo
[24] = Oral steady-state volume of distribution in beagle dog at 5 mg/kg followed by activated charcoal administration 1 hr post compound dosing; format: ADME, organism-based, Canis lupus familiaris; parameters: dose 5 mg/kg; conditions: in vivo, read-out: Vss/F
[25] = Mean residence time in beagle dog at 5 mg/kg, po; format: ADME, organism-based, Canis lupus familiaris; parameters: dose 5 mg/kg, route oral; conditions: in vivo
[26] = Plasma concentration in beagle dog at 5 mg/kg, po followed by activated charcoal administration 1 hr post compound dosing measured at 8 hrs; format: ADME, organism-based, Canis lupus familiaris; parameters: dose 5 mg/kg, route oral
[27] = Mean residence time in wild-type Sprague-Dawley rat at 4 mg/kg, po; format: ADME, organism-based; parameters: dose 4 mg/kg, route oral; conditions: in vivo
[28] = Oral bioavailability in beagle dog at 5 mg/kg followed by activated charcoal administration 3 hrs post compound dosing; format: ADME, organism-based, Canis lupus familiaris; conditions: in vivo
[29] = AUC (0 to infinity) in wild-type Sprague-Dawley rat at 4 mg/kg, po; format: ADME, organism-based; parameters: time infinity, dose 4 mg/kg, route oral; conditions: plasma
[30] = Cmax in beagle dog at 5 mg/kg, po followed by activated charcoal administration 3 hrs post compound dosing; format: ADME, organism-based, Canis lupus familiaris; parameters: dose 5 mg/kg, route oral; conditions: in vivo

`COc1ccc(-n2nc(C(N)=O)c3c2C(=O)N(c2ccc(N4CCCCC4=O)cc2)CC3)cc1` showed an MRT [1] of 3.8 h, a Cmax [2] of 2870 ng/mL and a Cmax [3] of 420 ng/mL. For the same molecule, the Vd/F [4] was 0.5 L/kg, the CL/F [5] was 1.68 mL/min/kg and the Vd/F [6] was 0.5 L/kg. The half-life [7] was 4 h, the CL (Rattus norvegicus) was under 5% and the CL/F [8] was 6.67 mL/min/kg. The half-life [9] was 2.5 h, the bioavailability [10] was 122% and the Cmax [11] was 8420 ng/mL. The AUC(0-t) at 24 h [12] was 63900 ng·h/mL, the MRT [13] was 2.1 h and the Vd/F [14] was 1.1 L/kg. For the same molecule, the AUC(0-inf) [15] was 3340 ng·h/mL, the bioavailability [16] was 140% and the Vd/F [17] was 0.5 L/kg. For the same molecule, the MRT [18] was 2.9 h, the half-life [19] was 1.6 h and the AUC(0-inf) [20] was 6570 ng·h/mL. For the same molecule, the half-life [21] was 3 h, the bioavailability [22] was 99% and the CL/F [23] was 25 mL/min/kg. It also gave a CL (Canis familiaris) of under 5%, a Vd/F [24] of 0.5 L/kg and an MRT [25] of 8.5 h. It also gave a concentration at 8 h [26] of 3380 ng/mL, an MRT [27] of 3.8 h and a bioavailability [28] of 77%. For the same molecule, the AUC(0-inf) [29] was 1390 ng·h/mL and the Cmax [30] was 8070 ng/mL.
